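In this assay, cells in 96-well plates receive the compound at five concentrations for 48 hours. Endpoints are linearly interpolated between the surrounding concentrations. At the GI50, growth is halved. TGI: total growth inhibition.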
What was measured:
Assay in all cases: growth of human tumour cells (NCI), 48 h
[1] = test system: 786-0 renal
[2] = test system: A498 renal
[3] = test system: A549 NSCLC
[4] = test system: ACHN renal
[5] = test system: BT-549 breast
[6] = test system: CAKI-1 renal
[7] = test system: CCRF-CEM leukemia
[8] = test system: COLO 205 colon
[9] = test system: DU-145 prostate
[10] = test system: EKVX NSCLC
[11] = test system: HCC-2998 colon
[12] = test system: HCT-116 colon
[13] = test system: HCT-15 colon
[14] = test system: HL-60(TB) leukemia
[15] = test system: HOP-62 NSCLC
[16] = test system: HOP-92 NSCLC
[17] = test system: HS 578T breast
[18] = test system: HT29 colon
[19] = test system: IGROV1 ovarian
[20] = test system: K-562 leukemia
[21] = test system: KM12 colon
[22] = test system: LOX IMVI melanoma
[23] = test system: M14 melanoma
[24] = test system: MALME-3M melanoma
[25] = test system: MCF7 breast
[26] = test system: MDA-MB-231 breast
[27] = test system: MDA-MB-435
[28] = test system: MOLT-4 leukemia
[29] = test system: NCI-H226 lung
[30] = test system: NCI-H23 lung
[31] = test system: NCI-H460 lung
[32] = test system: NCI-H522 lung
[33] = test system: NCI/ADR-RES ovarian
[34] = test system: OVCAR-3 ovarian
[35] = test system: OVCAR-4 ovarian
[36] = test system: OVCAR-5 ovarian
[37] = test system: OVCAR-8 ovarian
[38] = test system: PC-3 prostate
[39] = test system: RPMI-8226 leukemia
[40] = test system: RXF 393 renal
[41] = test system: SF-268 CNS
[42] = test system: SF-295 CNS
[43] = test system: SF-539 CNS
[44] = test system: SK-MEL-2 melanoma
[45] = test system: SK-MEL-28 melanoma
[46] = test system: SK-MEL-5 melanoma
[47] = test system: SK-OV-3 ovarian
[48] = test system: SN12C renal
[49] = test system: SNB-19 CNS
[50] = test system: SNB-75 CNS
[51] = test system: SR leukemia
[52] = test system: SW-620 colon
[53] = test system: T-47D breast
[54] = test system: TK-10 renal
[55] = test system: U251 CNS
[56] = test system: UACC-257 melanoma
[57] = test system: UACC-62 melanoma
[58] = test system: UO-31 renal

CC(=O)Nc1cc(F)cc(-c2ccc3[nH]cc(-c4ccccc4)c3n2)c1
GI50 [1]: 2.22 µM
TGI [1]: 5.65 µM
GI50 [2]: 3.75 µM
TGI [2]: 12.7 µM
GI50 [3]: 3.6 µM
TGI [3]: 16.7 µM
GI50 [4]: 4.08 µM
TGI [4]: 14.3 µM
GI50 [5]: 4.78 µM
TGI [5]: 17 µM
GI50 [6]: 3.32 µM
TGI [6]: 12.2 µM
GI50 [7]: 3.42 µM
TGI [7]: 17.9 µM
GI50 [8]: 2.17 µM
TGI [8]: 4.69 µM
GI50 [9]: 5.52 µM
TGI [9]: 17.9 µM
GI50 [10]: 4.71 µM
TGI [10]: 21.5 µM
GI50 [11]: 2.11 µM
TGI [11]: 4.71 µM
GI50 [12]: 3.33 µM
TGI [12]: 12 µM
GI50 [13]: 2.08 µM
TGI [13]: 5.05 µM
GI50 [14]: 2.72 µM
TGI [14]: 10.7 µM
GI50 [15]: 4.2 µM
TGI [15]: 17.4 µM
GI50 [16]: 2.97 µM
TGI [16]: 9.63 µM
GI50 [17]: 5.01 µM
TGI [17]: 47.7 µM
GI50 [18]: 2.21 µM
TGI [18]: 5.15 µM
GI50 [19]: 5.04 µM
TGI [19]: 21.1 µM
GI50 [20]: 2.79 µM
TGI [20]: 9.11 µM
GI50 [21]: 1.87 µM
TGI [21]: 3.56 µM
GI50 [22]: 1.75 µM
TGI [22]: 3.39 µM
GI50 [23]: 2.65 µM
TGI [23]: 7.85 µM
GI50 [24]: 3.5 µM
TGI [24]: 12.8 µM
GI50 [25]: 2.9 µM
TGI [25]: 12.3 µM
GI50 [26]: 3.46 µM
TGI [26]: 12.7 µM
GI50 [27]: 4.05 µM
TGI [27]: 15.5 µM
GI50 [28]: 2.26 µM
TGI [28]: 10.4 µM
GI50 [29]: 6.31 µM
TGI [29]: 23 µM
GI50 [30]: 4.98 µM
TGI [30]: 20 µM
GI50 [31]: 3.37 µM
TGI [31]: 14.6 µM
GI50 [32]: 1.83 µM
TGI [32]: 4.11 µM
GI50 [33]: 3.99 µM
TGI [33]: 23 µM
GI50 [34]: 5.08 µM
TGI [34]: 17.8 µM
GI50 [35]: 5.44 µM
TGI [35]: 18.6 µM
GI50 [36]: 4.92 µM
TGI [36]: 22.1 µM
GI50 [37]: 6.16 µM
TGI [37]: 44.3 µM
GI50 [38]: 3.33 µM
TGI [38]: 16 µM
GI50 [39]: 3.08 µM
TGI [39]: 19.2 µM
GI50 [40]: 2.5 µM
TGI [40]: 7.97 µM
GI50 [41]: 5.12 µM
TGI [41]: 22 µM
GI50 [42]: 2.1 µM
TGI [42]: 5.16 µM
GI50 [43]: 2.97 µM
TGI [43]: 10.7 µM
GI50 [44]: 2.46 µM
TGI [44]: 6.8 µM
GI50 [45]: 2.43 µM
TGI [45]: 6.13 µM
GI50 [46]: 4.07 µM
TGI [46]: 15 µM
GI50 [47]: 6.84 µM
TGI [47]: 21.3 µM
GI50 [48]: 6.7 µM
TGI [48]: 21.9 µM
GI50 [49]: 3.9 µM
TGI [49]: 13.9 µM
GI50 [50]: 4.93 µM
TGI [50]: 18.1 µM
GI50 [51]: 2.75 µM
TGI [51]: 8.4 µM
GI50 [52]: 3.31 µM
TGI [52]: 25.3 µM
GI50 [53]: 4.77 µM
TGI [53]: 29.1 µM
GI50 [54]: 6 µM
TGI [54]: 18.3 µM
GI50 [55]: 3.73 µM
TGI [55]: 16.1 µM
GI50 [56]: 2.32 µM
TGI [56]: 5.96 µM
GI50 [57]: 3.34 µM
TGI [57]: 11.9 µM
GI50 [58]: 3.88 µM
TGI [58]: 14.8 µM

Reference: PubChem BioAssay (NCI)
